Measurements as given in paper PMC9317316, “Synthesis and Evaluation of Some New 4H-Pyran Derivatives as Antioxidant, Antibacterial and Anti-HCT-116 Cells of CRC, with Molecular Docking, Antiproliferative, Apoptotic and ADME Investigations” (Pharmaceuticals, 2022).
Several values for one entry are separate records, joined by “and”; a condition that tells them apart may be missing. Identical values can stand only once. Like-named read-outs stand apart in the source and are kept apart here.

Assays:
[1] = DPPH radical scavenging assay; conditions: for IC50: 0.03 to 1 mg/mL, 1 h, mean ± SD, triplicate, read-out: IC50 (mM) for DPPH Scavenging Potency
How it was run: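 Ethanolic DPPH mixed with samples at 0.03 to 1 mg/mL, kept 1 h at room temperature in darkness, then absorbance read at 519 nm against compound-free control. Scavenging percentage computed as (1 − Acompound/Acontrol) × 100; IC50 interpolated from scavenging-versus-concentration plot.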

[2] = Reducing power assay (FRAC, Fe3+ to Fe2+); conditions: 0-1 mg/mL, absorbance 700 nm
How it was run: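 Oyaizu method: compound (0–1 mg/mL) incubated with 0.2 M phosphate buffer pH 6.6 and 1% K3Fe(CN)6 at 50 °C for 20 min, then TCA, centrifugation, and 0.1% FeCl3 added to supernatant. Absorbance read at 700 nm; EC50 expressed in mM, BHT as reference.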

[3] = test system: B. cereus (ATCC 14579); assay: Antibacterial agar diffusion method (inhibition zone); assay type: cell-based
How it was run: (§1)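 IC50 values come from residual colony counts versus initial inoculum: cells at 2 ×10^7 CFU/mL in sterile BHI incubated with compound under shaking, 60 min, 37 °C, then plated for 24 h. Zone assays used agar diffusion with ampicillin (10 µg/well) control.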

[4] = test system: B. subtilis (ATCC 6633); assay: as above; assay type: cell-based
How it was run: as §1

[5] = test system: E. coli (ATCC 25966); assay: as above; assay type: cell-based; conditions: E. coil (ATCC 25966)
How it was run: as §1

[6] = test system: E. faecalis (ATCC 29122); assay: as above; assay type: cell-based
How it was run: as §1

[7] = test system: K. pneumonia (ATCC 700603); assay: as above; assay type: cell-based
How it was run: as §1

[8] = test system: P. aeruginosa (ATCC 27853); assay: as above; assay type: cell-based
How it was run: as §1

[9] = test system: S. aureus (ATCC 25923); assay: as above; assay type: cell-based
How it was run: as §1

[10] = test system: S. enteric (ATCC 43972); assay: as above; assay type: cell-based
How it was run: as §1

[11] = test system: S. epidermidis (ATCC 14990); assay: as above; assay type: cell-based
How it was run: as §1

[12] = test system: B. cereus (ATCC 14579); assay: Antibacterial viability (CFU) assay, IC50; assay type: cell-based; conditions: Bacillus cereus, ATCC14579
How it was run: as §1

[13] = test system: B. subtilis (ATCC 6633); assay: Antibacterial viability (CFU) assay, IC50; assay type: cell-based
How it was run: as §1

[14] = test system: E. coli (ATCC 25966); assay: Antibacterial viability (CFU) assay, IC50; assay type: cell-based; conditions: Escherichia coli, ATCC25966; E. coil (ATCC 25966)
How it was run: as §1

[15] = test system: E. faecalis (ATCC 29122); assay: Antibacterial viability (CFU) assay, IC50; assay type: cell-based; conditions: Enterococcus faecalis, ATCC29122
How it was run: as §1

[16] = test system: K. pneumonia (ATCC 700603); assay: Antibacterial viability (CFU) assay, IC50; assay type: cell-based; conditions: Klebsiella pneumoniae, ATCC700603
How it was run: as §1

[17] = test system: P. aeruginosa (ATCC 27853); assay: Antibacterial viability (CFU) assay, IC50; assay type: cell-based; conditions: Pseudomonas aeruginosa, ATCC27853
How it was run: as §1

[18] = test system: S. aureus (ATCC 25923); assay: Antibacterial viability (CFU) assay, IC50; assay type: cell-based; conditions: Staphylococcus aureus, ATCC25923
How it was run: as §1

[19] = test system: S. enteric (ATCC 43972); assay: Antibacterial viability (CFU) assay, IC50; assay type: cell-based; conditions: read-out: IC50
How it was run: as §1

[20] = test system: S. epidermidis (ATCC 14990); assay: Antibacterial viability (CFU) assay, IC50; assay type: cell-based; conditions: Staphylococcus epidermidis, ATCC14990
How it was run: as §1

[21] = test system: HCT-116 cells; assay: Cell viability (cytotoxicity, LDH release) assay; assay type: cell-based; conditions: Homo sapiens, 24 h; for viability at 100 µg/mL: read-out: percent of viable cells
How it was run: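 Human colorectal HCT-116 cells exposed to compounds at 10, 25, 50 and 100 µg/mL in DMEM with 10% FBS for 24 h at 37 °C. LDH released into the supernatant measured at 600 nm; viability given as % of untreated control OD (mean ± SD, n = 3), 0.1% Triton X-100 as positive control.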

[22] = Bacillus subtilis, ATCC6633, B. subtilis (ATCC 6633)
[23] = read-out: Mean IC50 (µM) of cytotoxicity
[24] = read-out: Mean IC50 (µg/mL) of cytotoxicity

Compound	IC50 [1]	DPPH Radical Scavenging Effenciency (%) at 1 mg/mL [1]	EC50 [2]	IZ (mm) [3]	IZ (mm) [4]	IZ (mm) [5]	IZ (mm) [6]	IZ (mm) [7]	IZ (mm) [8]	IZ (mm) [9]	IZ (mm) [10]	IZ (mm) [11]	IC50 [12]	IC50 [13, 22]	IC50 [14]	IC50 [15]	IC50 [16]	IC50 [17]	IC50 [18]	IC50 [19]	other results
CC1=C(C(=O)OCc2ccccc2)C(c2ccc(Cl)cc2Cl)C(C#N)=C(N)O1 (centres unmarked) [4m, 6-Amino-5-cyano-4-(2,4-dichloro-phenyl)-2-methyl-4H-pyran-3-carboxylic acid benzyl ester]	0.421 ± 0.017 mM	69.00% and 69.0 ± 2.83%	506 ± 34 µM	18.50 ± 0.71 mm	21.50 ± 0.71 mm	5.5 ± 0.71 mm	20.50 ± 0.71 mm	6.5 ± 0.7 mm	9.5 ± 0.7 mm	17.50 mm and 17.50 ± 0.71 mm	8.5 ± 0.7 mm	18.50 ± 0.71 mm	35.8 ± 1.2 µM	23.6 to 36.8 µM	69.4 ± 2.89 µM	35.3 ± 2.22 µM	66.7 ± 2.41 µM	60.9 ± 2.17 µM	33.2 ± 1.01 µM	61.8 ± 2.17 µM	IC50 ([13]; B. subtilis (ATCC 6633)): 32.8 ± 2.05 µM; IC50 [20]: 35 ± 1.88 µM; viability at 100 µg/mL [21]: 11 to 32.5%; IC50 [21, 23]: 89.3 ± 5.05 µM; IC50 [21, 24]: 37.1 ± 2.1 µg/mL; melting point: 146 to 148 °C
CC1=C(C(=O)OCc2ccccc2)C(c2ccccc2Cl)C(C#N)=C(N)O1 (centres unmarked) [4l, 6-Amino-4-(2-chloro-phenyl)-5-cyano-2-methyl-4H-pyran-3-carboxylic acid benzyl ester]	0.919 ± 0.026 mM	70.20% and 70.20 ± 1.70%	801 ± 19 µM	10.00 ± 1.41 mm	11.50 ± 0.71 mm	3.5 ± 0.7 mm	6.00 ± 1.41 mm	2.5 ± 0.7 mm	4.5 ± 0.7 mm	9.00 mm and 9.00 ± 1.41 mm	4.0 ± 0.0 mm	10.50 ± 0.71 mm	33.2 ± 2.42 µM	23.6 to 36.8 µM	90.1 ± 2.63 µM	37.8 ± 1.5 µM	77.5 ± 7.08 µM	72.7 ± 2.63 µM	31.1 ± 0.55 µM	77.6 ± 1.58 µM	IC50 ([13]; B. subtilis (ATCC 6633)): 32.6 ± 1.5 µM; IC50 [20]: 33.4 ± 1.1 µM; viability at 100 µg/mL [21]: 11 to 32.5%; IC50 [21, 23]: 93.4 ± 4.63 µM; IC50 [21, 24]: 35.5 ± 1.77 µg/mL; melting point: 162 to 164 °C
CCOC(=O)C1=C(C)OC(N)=C(C#N)C1c1c(OC)cc(OC)cc1OC (centres unmarked) [4h, 6-Amino-5-cyano-2-methyl-4-(2,4,6-trimethoxy-phenyl)-4H-pyran-3-carboxylic acid ethyl ester]	1.31 ± 0.075 mM	33.50 ± 2.12%	221 ± 11 µM	4.50 ± 0.71 mm	6.00 ± 1.41 mm	1.5 ± 0.71 mm	8.00 ± 1.41 mm	3.5 ± 0.7 mm	4.5 ± 0.7 mm	17.50 mm and 17.50 ± 0.71 mm	5.5 ± 0.7 mm	16.50 ± 0.71 mm	46.5 ± 1.52 µM	50.1 ± 2.83 µM	114 ± 0.8 µM	45.9 ± 0.75 µM	118 ± 2.67 µM	89.5 ± 2.94 µM	32.7 ± 0.93 µM	112 ± 2.94 µM	IC50 [20]: 35.8 ± 1.52 µM; viability at 100 µg/mL [21]: 11 to 32.5%; IC50 [21, 23]: 185 ± 11.5 µM; IC50 [21, 24]: 69.2 ± 4.29 µg/mL; melting point: 196 to 198 °C
Cc1[nH]nc2c1C(c1cccc(O)c1Cl)C(C#N)=C(N)O2 (centres unmarked) [5a, 6-Amino-4-(2-chloro-3-hydroxy-phenyl)-3-methyl-2,4-dihydro-pyrano[2,3-c]pyrazole-5-carbonitrile]	0.826 ± 0.092 mM	45.50 ± 2.12%	363 ± 47 µM	12.50 ± 0.71 mm	12.50 ± 0.71 mm	2.8 ± 0.21 mm	10.50 ± 0.71 mm	6.0 ± 1.4 mm	5.5 ± 0.7 mm	14.00 ± 1.40 mm	4.5 ± 0.7 mm	13.50 ± 0.71 mm	62.43 ± 0.46 µM	62.43 ± 0.46 µM	110 ± 5.95 µM	51.9 ± 1.39 µM	96.5 ± 4.96 µM	85.9 ± 3.3 µM	43.9 ± 1.39 µM	105 ± 1.32 µM	IC50 [20]: 54.8 ± 1.88 µM; viability at 100 µg/mL [21]: 11 to 32.5%; IC50 [21, 23]: 189 ± 10.8 µM; IC50 [21, 24]: 60 ± 3.28 µg/mL; melting point: 240 to 242 °C
COC(=O)C1=C(C)OC(N)=C(C#N)C1c1cccc(O)c1Cl (centres unmarked) [4f, 6-Amino-4-(2-chloro-3-hydroxy-phenyl)-5-cyano-2-methyl-4H-pyran-3-carboxylic acid methyl ester]	3.34 ± 0.131 mM	43.75 ± 1.77%	398 ± 45 µM	22.50 ± 0.71 mm	19.50 ± 0.71 mm	7.5 ± 0.71 mm	19.00 ± 1.41 mm	4.5 ± 0.7 mm	6.0 ± 1.4 mm	16.50 ± 0.71 mm	6.5 ± 0.7 mm	14.50 ± 0.71 mm	42.4 ± 2.65 µM	23.6 to 36.8 µM	95.7 ± 5.61 µM	34.6 ± 0.59 µM	82 ± 3.43 µM	105 ± 2.81 µM	38.4 ± 1.31 µM	94.2 ± 3.43 µM	IC50 ([13]; B. subtilis (ATCC 6633)): 36.8 ± 0.87 µM; IC50 [20]: 33 ± 2.65 µM; viability at 100 µg/mL [21]: 55.5%; IC50 [21, 23]: 333 ± 13.4 µM; IC50 [21, 24]: 107 ± 4.29 µg/mL; melting point: 238 to 240 °C
